2 molecules from EP0934745B1, “Use of androsterone derivatives for inhibiting DNA binding of ap-1 and airway smooth muscle proliferation” (CHARLOTTE-MECKLENBURG HOSPITAL doing business as Carolinas …, priority 1998, dated 1999) can be followed below.

One may read the inhibition as the change of the read-out against control, counted positive when it falls.

The target in the experiment is T1, glucose-6-phosphate dehydrogenase (G6PDH) (Rattus norvegicus, UniProt P05370).
T1 construct: endogenous in cells; host or cells: primary rat tracheal (airway) smooth muscle cells
In words: G6PDH activity after pretreatment of intact airway smooth muscle monolayers. Particulars: for G6PDH activity of subsequent cell lysates: monolayers pretreated with concentrations that inhibited cell proliferation, result in words. In kind it is cell-based. On the procedure: After 1 hour cells were lysed and G6PDH activity was assayed as described below. In other experiments, G6PDH activity was measured in cell lysates prepared from untreated confluent cultures and treated in vitro with DHEA or 16α-BrEA added to the reaction mixture in 5 µl DMSO. […] Ribonucleosides or deoxyribonucleosides were dissolved in 0.5 ml of 1 N HCl and added to DMEM. The pH of the medium was adjusted to 7.1 by titration with 1 N NaOH, and medium was then sterilized by passage through a […] filter. Growth was measured by MTT reduction after 24, 48 and 96 hours.
To determine if DHEA or its analogs induced programmed cell death, confluent cultures in 6 well plastic plates were treated with 50 or 250 µM DHEA, 10 or 50 µM 16α-BrEA, or vehicle (25 µl DMSO). After 2 hours cells were washed twice with DPBS and scraped on ice into 1.5 ml microfuge tubes and centrifuged 250 g for 5 minutes at 4°C. The cell pellet was gently resuspended in 30 µl DPBS and lysed by addition of 30 µl lysis buffer (80 mM EDTA, 1.6% [wt/vol] sodium lauryl sarcosinate and 5 mg/ml proteinase K in 200 mM Tris-HCl buffer, pH 8.0). Lysate was incubated at 50°C for 1.5 hours. RNAse A (0.2 mg/ml) was added and the lysate was incubated for another 30 minutes at 37°C. DNA bands were separated along with a DNA ladder standard on a 1% agarose gel at 60 V for 1 hour, intercalated with ethidium bromide, and visualized and photographed under ultraviolet light. Measurement of Glucose-6-Phosphate Dehydrogenase Activity. Cultures were washed three times with cold DPBS on ice, scraped into ice cold buffer (10 mM MgCl2 in 50 mM Tris, pH 8.0) and sonicated on ice. G6PDH activity was then assayed by the method of Jones and Andrews (Jones, J.T., and Andrews, S.G., "Glucose-6-phosphate dehydrogenase activity in somatic and germinal cells of the mouse testis," J. Reproduc. Fertility, 54, 357-362 (1978)) in a reaction mixture containing 50-200 µl cell lysate, 20 µl of 10 mM β-nicotinamide adenine dinucleotide phosphate (NADP) and 20 µl of 10 mM D-glucose-6-phosphate (G6P) in a total volume of 1 ml buffer (10 mM MgCl2 in 50 mM Tris, pH 8.0). The reaction was initiated by addition of G6P. The linear increase in absorbance at 340 nm was monitored at 25°C for 300 seconds. Activity was expressed as units/mg protein, where 1.0 unit will oxidase 1.0 µmole of G6P to 6-phospho-D-gluconate per min in the presence of NADP. Protein was measured using the BCA protein assay (Rockford, IL). Immunoblot Assay for p21^ras and c-fos Proteins. For measurement of p21^ras, cells were washed twice-with cold DPBS and swelled on ice for 15 minutes with 500 µl cold lysis buffer (10 mM HEPES, 1 mM MgCl2, 1 mM EDTA, 1 µM pepstatin, 2 µg/ml aprotinin, and 1 mM phenylmethylsulfonyl fluoride). See Schulz and Nyce (1991), supra. Cells were then scraped into 1.5 ml polypropylene tubes, homogenized and clarified by centrifugation at 3,000 g for 1 minute at 4°C. The postnuclear supernatant was centrifuged 100,000 g for 30 minutes at 4°C. Supernatants were collected and pelleted membranes were resuspended in detergent buffer (1% Triton X-100, 1% sodium deoxycholate, 0.1% SDS, 150 mM NaCl, 1 µM pepstatin, 2 µg/ml aprotinin and 1 mM phenylmethylsulfonyl fluoride in 25 mM Tris, pH 7.4). Aliquots of supernatant and membrane fractions were removed for protein determination using the BCA protein assay. Bromophenol blue and β-mercaptoethanol were added to the remaining sample to a final concentration of 0.002% (wt/vol) and 5% (vol/vol), respectively. Lysates were then boiled for 5 minutes at 100°C and stored at -80°C until immunoblotting was performed.
Activity is expressed as % inhibition of DMSO vehicle-treated controls by 16α-bromoepiandrosterone (BrEA) or dehydroepiandrosterone (DHEA). DMSO alone caused no reduction in G6PDH activity under assay conditions. Each bar represents the mean of at least 3 experiments. Methods are described in the text. […]

T1 sequence (P05370 whole entry): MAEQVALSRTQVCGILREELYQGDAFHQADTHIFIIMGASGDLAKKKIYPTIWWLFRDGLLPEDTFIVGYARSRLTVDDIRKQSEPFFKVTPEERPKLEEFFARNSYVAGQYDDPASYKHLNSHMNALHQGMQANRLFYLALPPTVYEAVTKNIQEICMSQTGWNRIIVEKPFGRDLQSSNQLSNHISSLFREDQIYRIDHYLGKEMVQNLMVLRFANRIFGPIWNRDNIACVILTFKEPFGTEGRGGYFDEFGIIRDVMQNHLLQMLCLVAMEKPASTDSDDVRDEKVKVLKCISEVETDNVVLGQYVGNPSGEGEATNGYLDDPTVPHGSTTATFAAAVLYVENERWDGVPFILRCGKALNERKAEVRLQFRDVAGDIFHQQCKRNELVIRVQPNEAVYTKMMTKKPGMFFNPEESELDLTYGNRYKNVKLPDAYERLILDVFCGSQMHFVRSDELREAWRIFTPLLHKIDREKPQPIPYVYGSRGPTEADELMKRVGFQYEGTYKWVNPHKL

On to `C[C@]12CC[C@H](O)CC1=CC[C@@H]1[C@@H]2CC[C@]2(C)C(=O)CC[C@@H]12` [DHEA, dehydroepiandrosterone], for which the “G6PDH activity of subsequent cell lysates” value was “not significantly reduced”. Also, where the note is “25 µM, Intact Airway Smooth Muscle monolayers pretreated 1 hour before harvest, read-out: PERCENT INHIBITION OF GLUCOSE 6-PHOSPHATE DEHYDROGENASE ACTIVITY”, the inhibition at 25 µM was determined as 0%. For the same molecule, the inhibition at 50 µM (50 µM, Intact Airway Smooth Muscle monolayers pretreated 1 hour before harvest, read-out: PERCENT INHIBITION OF GLUCOSE 6-PHOSPHATE DEHYDROGENASE ACTIVITY) was 0%. Moreover, the inhibition at 100 µM (100 µM, Intact Airway Smooth Muscle monolayers pretreated 1 hour before harvest, read-out: PERCENT INHIBITION OF GLUCOSE 6-PHOSPHATE DEHYDROGENASE ACTIVITY) stood at 6 ± 7%. Further, the inhibition at 250 µM (250 µM, Intact Airway Smooth Muscle monolayers pretreated 1 hour before harvest, read-out: PERCENT INHIBITION OF GLUCOSE 6-PHOSPHATE DEHYDROGENASE ACTIVITY) amounted to 24 ± 9%.
Turning to `C[C@]12CC[C@H](O)C[C@@H]1CC[C@@H]1[C@@H]2CC[C@]2(C)C(=O)[C@H](Br)C[C@@H]12` [16α-BrEA, 16α-bromoepiandrosterone], the “G6PDH activity of subsequent cell lysates” value was “not significantly reduced”.
